Data as given in US20090197811A1, “ORALLY ADMINISTERED PEPTIDES TO IMPROVE OR PREVENT HEPATIC FIBROSIS” (University of Southern California, priority 2007, published 2009).
Non-standard residues stand in square brackets, D forms with d.

Legend:
Format in all cases: in vivo, mouse
[1] = system: C57Bl/6J mice; experiment: Western diet model: α-smooth muscle actin staining of liver sections; conditions: mice on the Western diet treated with D-4F (FIG. 4E)
Experimental: (§1) Studies were performed in male C5713L/6J mice (Jackson Laboratories, Bar Harbor Me.). Six groups were studied (n=3-5, see FIG. 1) with 4 mice per group at the outset, except for group 2, which was started with n=5; 1 mouse died in group 1. Groups 1, 2, and 3 received the Western diet for 9.5 months; during the last 2.5 months of the 9.5 months, group 2 received SR141716 10 mg/kg/day i.g., and group 3 received D-4F, 125 μg/mouse/day, in the drinking water. Groups 4, 5, and 6 received the Western diet for 7 months followed by standard chow for 2.5 months; during the 2.5 months on standard chow, group 5 received SR141716 and group 6 received D-4F as described for groups 2 and 3, respectively. Additional control groups were studied: 6-month old C57Bl/6J mice as age-matched controls (n=5) and C57Bl/6J mice that received the Western diet for 6 months (n=6).
Sections of formalin-fixed, paraffin-embedded liver, 7 μm thick, were used for α-smooth muscle actin immunofluorescence staining. Slides were deparaffinized in xylene and serially rehydrated in graded ethanol (100-70%). Slides were treated with 0.1 M tris-HCl (pH 7.6)/0.05 Tween-20 for 5 min, incubated with 1 μg/ml proteinase K (Sigma, St Louis Mo.)) for 15 min at room temperature, and then rinsed in water for 10 min. […]

[2] = system: C57Bl/6J mice; experiment: Western diet model: biochemical findings and liver and body weights; conditions: for GSH / TBARS: liver; for ALT / AST / Adiponectin / Cholesterol / Glucose / Insulin / Leptin / Triglycerides: serum
Experimental: SR141716 was a kind gift from Sanofi-Aventis, France. SR141716 was dissolved in water with 0.1% Tween and given daily by gavage for 10 weeks. D-4F is an 18-mer of D-amino acids (Ac-D-W-F-K-A-F-Y-D-K-V-A-E-K-F-K-E-A-F-NH2)^4 (SEQ ID NO: 1) that was commercially synthesized (A & A Laboratories, San Diego Calif.) with 80% purity. D-4F was dissolved in the drinking water at a concentration of 60 μg/ml water for a calculated dose corrected for drug purity of 125 μg D-4F/mouse/day.
The high fat diet used was the RD “Western diet” (Research Diets, D12079B), which contains 41% of calories from fat, 43% calories from carbohydrate, and 17% of calories from protein); this diet was designed to approximate the “typical” human diet of North America and Europe.
as §1
Serum aspartate amino transferase (AST) and alanine aminotransferase (ALT) were measured with the Infinity AST and ALT liquid assay reagent (Thermo Electron Corporation, Louisville Colo., cat #TR70121 and TR71121). Serum triglycerides and cholesterol were measured with the Infinity cholesterol assay reagent (Thermo Electron Corporation, Louisville Colo., cat #TR22321 and TR13315). Serum glucose was measured with the Glucose (HK) assay kit (Sigma, St. Louis, Mo., cat #GAHK-20). Serum insulin was measured with the Mercodia Ultrasensitive mouse insulin ELISA kit (ALPCO Diagnostics, Salem N.H., cat #10 1150-01). The homeostasis model assessment insulin resistance index (HOMA-IR) was calculated as [fasting glucose (mmol/liter)*fasting insulin (microunits/ml)]/22.5^17, 18. Serum leptin was measured with the TiterZyme EIA mouse leptin kit (Assay Designs Inc, Ann Arbor Mich., cat #900-019). Serum adiponectin was measured with the mouse adiponectin kit (Biovendor LLC, Candler N.C., cat #RD 293023100). Thiobarbituric acid reactive substance (TBARS) was measured as previously described^19, 20; in brief, liver was homogenized and diluted 1:1 in 10% ice cold trichloroacetic acid. 0.5 ml supernatant or of a standard solution of 1,1,3,3-tetraethoxypropane was mixed with 0.5 ml of 0.6% (w/v) 4,6-dihydroxy-2-thiopyrimidine. The solution was boiled for 30 min, cooled and centrifuged. Absorbance was measured at 532 nm with a Shimadzu TV-2101 PC spectrophotometer. To measure hepatic glutathione (GSH), liver was homogenized and diluted 1:1 in 10% ice cold trichloroacetic acid. GSH in the supernatant was measured according to the recycling assay of Tietze^21.

[3] = system: C57Bl/6J mice; experiment: Western diet model: fibrosis by Sirius red whole-section-scanning morphometric image analysis
Experimental: as §1
Sirius red staining was performed by the Morphology core of the USC-UCLA Research Center for Alcoholic Liver and Pancreatic Diseases. α-Smooth muscle actin.
Tissue sections stained with Sirius red were scanned by a third-generation Automated Cellular Imaging System (ACIS III), a highly automated microscope-based digital imaging system (Carl Zeiss MicroImaging AIS Inc., Aliso Viejo Calif.). The color of the Sirius red staining in the digitized tissue sections was determined and applied to a pre-existing algorithm that provides the area of a target color in μm^2. The outline of each digitized tissue section was manually traced using the computer's mouse. Areas of large portal tracts and central veins were also outlined manually. The total area (μm^2) of each tissue section and of the total area of large portal tracts and central veins were determined by the image analysis system. The area of fibrosis was calculated as [total area stained by Sirius red minus perivascular staining] as a percentage of the size of the tissue section. This method has the advantage of scanning the entire section, rather than measuring fibrosis in randomly chosen fields.

[4] = 7 months Western diet followed by 2.5 months Western diet + drug
[5] = 7 months Western diet followed by 2.5 months chow + drug
[6] = group 3 vs group 1, Western diet 9.5 months, D-4F last 2.5 months

What does the source list for “Ac-D-W-F-K-A-F-Y-D-K-V-A-E-K-F-K-E-A-F-NH2 (Ac-[dD][dW][dF][dK][dA][dF][dY][dD][dK][dV][dA][dE][dK][dF][dK][dE][dA][dF]-NH2; not fully specified; printed as Ac-D-W-F-K-A-F-Y-D-K-V-A-E-K-F-K-E-A-F-NH2) [D-4F]”?
activated stellate cells in liver sections (α-smooth muscle actin staining) [1]: decrease in activated stellate cells; Body weight [2, 4]: 39.5 ± 0.8 g; HOMA-IR [2, 4]: 63.3 ± 23.5; Liver weight [2, 4]: 2.42 ± 0.04 g; Body weight [2, 5]: 35.9 ± 3.2 g; HOMA-IR [2, 5]: 16.5 ± 2.2; Liver weight [2, 5]: 1.67 ± 0.19 g; body weight, liver weight, serum transaminases, hyperglycemia, hyperinsulinemia, insulin resistance, overall hepatic oxidative stress [2, 6]: no improvement; leptin levels compared to mice on Western diet alone [2, 6]: decreased by half; total cholesterol compared to mice on Western diet alone [2, 6]: decreased by half; GSH [2, 4]: 50.1 ± 5.8 nmole/mg protein; TBARS [2, 4]: 29.4 ± 2.4 nmol/g tissue; GSH [2, 5]: 82.8 ± 5.2 nmole/mg protein; TBARS [2, 5]: 20.0 ± 0.6 nmol/g tissue; ALT [2, 4]: 277.3 ± 18.2 U/L; AST [2, 4]: 211.9 ± 19.1 U/L; Adiponectin [2, 4]: 15.3 ± 1.0 µg/mL; Cholesterol [2, 4]: 146.8 ± 2.1 mg/dL; Glucose [2, 4]: 231.2 ± 18.0 mg/dL; Insulin [2, 4]: 3.7 ± 1.1 ng/mL; Leptin [2, 4]: 17.49 ± 1.41 ng/mL; Triglycerides [2, 4]: 40.0 ± 6.7 mg/dL; ALT [2, 5]: 69.1 ± 21.5 U/L; AST [2, 5]: 104.2 ± 22.4 U/L; Adiponectin [2, 5]: 18.52 ± 1.5 µg/mL; Cholesterol [2, 5]: 120.8 ± 2.9 mg/dL; Glucose [2, 5]: 159.2 ± 2.4 mg/dL; Insulin [2, 5]: 1.46 ± 0.2 ng/mL; Leptin [2, 5]: 8.70 ± 1.43 ng/mL; Triglycerides [2, 5]: 49.1 ± 1.4 mg/dL; fibrosis (surface area positive for Sirius red staining) ([3]; group 3: Western diet 9.5 months, D-4F 125 μg/mouse/day in drinking water last 2.5 months, group 1 without drug 4.6±1.9%): 1.25%; fibrosis (surface area positive for Sirius red staining) ([3]; group 6: 7 months Western diet, then 2.5 months chow plus D-4F, group 4 chow alone 2.8±0.7%): 0.9±0.2%; progression of fibrosis after onset of steatohepatitis ([3]; summary statement): prevented progression of fibrosis
